Test results taken from patent US11279691B2, “Substituted pyridine and pyrazine compounds as PDE4 inhibitors” (Dart Neuroscience LLC, priority 2013, dated 2022).

Target: T1, PDE4D3 (Homo sapiens, UniProt Q08499)
T1 construct: GST
Type: biochemical
Details: GST-tagged PDE4D3, 200 nM FAM-cAMP, 11-point dose-response; read-out: PD4d3 pEC50 (converted)

T1 sequence (Q08499 1-673 isoform Q08499-2): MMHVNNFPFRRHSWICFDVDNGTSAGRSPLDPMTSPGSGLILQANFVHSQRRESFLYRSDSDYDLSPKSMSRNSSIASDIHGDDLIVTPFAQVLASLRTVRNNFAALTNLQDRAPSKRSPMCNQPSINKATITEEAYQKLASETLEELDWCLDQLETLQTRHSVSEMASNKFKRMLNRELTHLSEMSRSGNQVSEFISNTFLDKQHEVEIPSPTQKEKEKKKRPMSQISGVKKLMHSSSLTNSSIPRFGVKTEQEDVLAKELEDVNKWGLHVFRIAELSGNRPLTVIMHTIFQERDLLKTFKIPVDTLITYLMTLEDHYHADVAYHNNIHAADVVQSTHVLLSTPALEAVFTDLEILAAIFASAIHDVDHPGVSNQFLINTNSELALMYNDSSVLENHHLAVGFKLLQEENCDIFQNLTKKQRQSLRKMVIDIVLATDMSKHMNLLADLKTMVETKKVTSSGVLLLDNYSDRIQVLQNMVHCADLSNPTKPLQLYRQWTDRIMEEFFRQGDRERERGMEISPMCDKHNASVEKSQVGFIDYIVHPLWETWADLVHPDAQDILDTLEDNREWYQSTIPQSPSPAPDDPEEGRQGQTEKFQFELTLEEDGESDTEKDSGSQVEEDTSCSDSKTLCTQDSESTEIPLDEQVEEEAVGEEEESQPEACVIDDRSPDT

SMILES	EC50
COc1ncc(Cc2cnc(N)nc2)cc1-c1ccc(F)cc1 [Example 360, 5-{[5-(4-Fluorophenyl)-6-methoxypyridin-3-yl]methyl}pyrimidin-2-amine]	< 100 nM
COc1ncc(Cc2cnc(N)nc2)cc1-c1ccc(Cl)c(F)c1 [Example 361, 5-{[5-(4-Chloro-3-fluorophenyl)-6-methoxypyridin-3-yl]methyl}pyrimidin-2-amine]	100 to 1000 nM
COc1ncc(Cc2cnc(N)nc2)cc1-c1ccc(F)c(F)c1 [Example 362, 5-{[5-(3,4-Difluorophenyl)-6-methoxypyridin-3-yl]methyl}pyrimidin-2-amine]	< 100 nM
COc1ncc(Cc2ccc(CC(N)=O)cc2)cc1-c1ccc(F)c(F)c1 [Example 363, 2-(4-{[5-(3,4-Difluorophenyl)-6-methoxypyridin-3-yl]methyl}phenyl)acetamide]	< 100 nM
COc1ncc(Cc2ccc(CC(N)=O)cc2)cc1-c1ccc(F)cc1 [Example 364, 2-(4-{[5-(4-Fluorophenyl)-6-methoxypyridin-3-yl]methyl}phenyl)acetamide]	< 100 nM
COc1ncc(Cc2ccc(CC(N)=O)cc2)cc1-c1ccc(Cl)c(F)c1 [Example 365, 2-(4-{[5-(4-Chloro-3-fluorophenyl)-6-methoxypyridin-3-yl]methyl}phenyl)acetamide]	< 100 nM
COc1ncc(Cc2cnc(CC(N)=O)nc2)cc1-c1ccc(Cl)c(F)c1 [Example 366, 2-(5-{[5-(4-Chloro-3-fluorophenyl)-6-methoxypyridin-3-yl]methyl}pyrimidin-2-yl)acetamide]	100 to 1000 nM
COc1ncc(Cc2cnc(C(C)(C)C(N)=O)nc2)cc1-c1cccc(Cl)c1 [Example 367, 2-(5-{[5-(3-Chlorophenyl)-6-methoxypyridin-3-yl]methyl}pyrimidin-2-yl)-2-methylpropanamide]	100 to 1000 nM
COc1ncc(Cc2cnc(CC(N)=O)nc2)cc1-c1ccc(F)c(F)c1 [Example 368, 2-(5-{[5-(3,4-Difluorophenyl)-6-methoxypyridin-3-yl]methyl}pyrimidin-2-yl)acetamide]	< 100 nM
COc1ncc(Cc2cnc(CC(N)=O)nc2)cc1-c1cccc(Cl)c1 [Example 369, 2-(5-{[5-(3-Chlorophenyl)-6-methoxypyridin-3-yl]methyl}pyrimidin-2-yl)acetamide]	< 100 nM
NC(=O)Cc1ncc(Cc2cnc(OCC(F)(F)F)c(-c3cccc(Cl)c3)c2)cn1 [Example 370, 2-(5-{[5-(3-Chlorophenyl)-6-(2,2,2-trifluoroethoxy)pyridin-3-yl]methyl}pyrimidin-2-yl)acetamide]	100 to 1000 nM
NC(=O)Cc1ncc(Cc2cnc(OCC(F)F)c(-c3cccc(Cl)c3)c2)cn1 [Example 371, 2-(5-{[5-(3-Chlorophenyl)-6-(2,2-difluoroethoxy)pyridin-3-yl]methyl}pyrimidin-2-yl)acetamide]	< 100 nM
NC(=O)Cc1ncn(Cc2cnc(OC(F)F)c(-c3cccc(Cl)c3)c2)n1 [Example 372, 2-(1-{[5-(3-Chlorophenyl)-6-(difluoromethoxy)pyridin-3-yl]methyl}-1H-1,2,4-triazol-3-yl)acetamide]	< 100 nM
COc1ncc(Cc2cnc(C(N)=O)nc2)cc1-c1ccc(F)c(F)c1 [Example 373, 5-{[5-(3,4-Difluorophenyl)-6-methoxypyridin-3-yl]methyl}pyrimidine-2-carboxamide]	100 to 1000 nM
COc1ncc(Cc2cnc(C(N)=O)nc2)cc1-c1ccc(F)cc1 [Example 374, 5-{[5-(4-Fluorophenyl)-6-methoxypyridin-3-yl]methyl}pyrimidine-2-carboxamide]	100 to 1000 nM
COc1ncc(Cc2cnc(NCCO)nc2)cc1-c1ccc(F)c(F)c1 [Example 375, 2-[(5-{[5-(3,4-Difluorophenyl)-6-methoxypyridin-3-yl]methyl}pyrimidin-2-yl)amino]ethan-1-ol]	< 100 nM

SMILES	EC50
COc1ncc(Cc2cnc(CO)cn2)cc1-c1cccc(Cl)c1 [Example 376, (5-{[5-(3-Chlorophenyl)-6-methoxypyridin-3-yl]methyl}pyrazin-2-yl)methanol]	< 100 nM
COc1ncc(Cc2cnc(C)cn2)cc1-c1cccc(Cl)c1 [Example 377, 2-{[5-(3-Chlorophenyl)-6-methoxypyridin-3-yl]methyl}-5-methylpyrazine]	< 100 nM
COc1ncc(Cc2ccc(C#N)cn2)cc1-c1cccc(Cl)c1 [Example 378, 6-{[5-(3-Chlorophenyl)-6-methoxypyridin-3-yl]methyl}pyridine-3-carbonitrile]	100 to 1000 nM
COc1ncc(Cc2cnc(N)cn2)cc1-c1ccc(Cl)c(F)c1 [Example 379, 5-{[5-(4-Chloro-3-fluorophenyl)-6-methoxypyridin-3-yl]methyl}pyrazin-2-amine]	100 to 1000 nM
COc1ncc(Cn2nnnc2C)cc1-c1cccc(Cl)c1 [Example 380, 3-(3-Chlorophenyl)-2-methoxy-5-[(5-methyl-1H-1,2,3,4-tetrazol-1-yl)methyl]pyridine]	< 100 nM
COc1ncc(Cn2nnc(CO)n2)cc1-c1ccc(F)cc1 [Example 381, (2-{[5-(4-Fluorophenyl)-6-methoxypyridin-3-yl]methyl}-2H-1,2,3,4-tetrazol-5-yl)methanol]	100 to 1000 nM
COc1ncc(Cn2nnnc2CO)cc1-c1ccc(F)cc1 [Example 382, (1-{[5-(4-Fluorophenyl)-6-methoxypyridin-3-yl]methyl}-1H-1,2,3,4-tetrazol-5-yl)methanol]	1000 to 10000 nM
COc1ncc(Cn2nnc(CO)n2)cc1-c1ccc(F)c(F)c1 [Example 383, (2-{[5-(3,4-Difluorophenyl)-6-methoxypyridin-3-yl]methyl}-2H-1,2,3,4-tetrazol-5-yl)methanol]	100 to 1000 nM
COc1ncc(Cn2nnnc2CO)cc1-c1ccc(F)c(F)c1 [Example 384, (1-{[5-(3,4-Difluorophenyl)-6-methoxypyridin-3-yl]methyl}-1H-1,2,3,4-tetrazol-5-yl)methanol]	1000 to 10000 nM
COc1ncc(Cn2nnc(CO)n2)cc1-c1ccc(Cl)c(F)c1 [Example 385, (2-{[5-(4-Chloro-3-fluorophenyl)-6-methoxypyridin-3-yl]methyl}-2H-1,2,3,4-tetrazol-5-yl)methanol]	100 to 1000 nM
COc1ncc(Cn2nnnc2CO)cc1-c1ccc(Cl)c(F)c1 [Example 386, (1-{[5-(4-Chloro-3-fluorophenyl)-6-methoxypyridin-3-yl]methyl}-1H-1,2,3,4-tetrazol-5-yl)methanol]	1000 to 10000 nM
COc1ncc(Cn2nnnc2CO)cc1-c1cccc(Cl)c1 [Example 387, (1-{[5-(3-Chlorophenyl)-6-methoxypyridin-3-yl]methyl}-1H-1,2,3,4-tetrazol-5-yl)methanol]	1000 to 10000 nM
COc1ncc(Cn2nnc(CO)n2)cc1-c1cccc(Cl)c1 [Example 388, (2-{[5-(3-Chlorophenyl)-6-methoxypyridin-3-yl]methyl}-2H-1,2,3,4-tetrazol-5-yl)methanol]	100 to 1000 nM
COc1ncc(Cc2cnc(N3CCC(O)C3)nc2)cc1-c1cccc(Cl)c1 (stereo not shown) [Example 389, 1-(5-{[5-(3-Chlorophenyl)-6-methoxypyridin-3-yl]methyl}pyrimidin-2-yl)pyrrolidin-3-ol]	100 to 1000 nM
COc1ncc(Cc2cnc(N3CC(O)C3)nc2)cc1-c1cccc(Cl)c1 [Example 390, 1-(5-{[5-(3-Chlorophenyl)-6-methoxypyridin-3-yl]methyl}pyrimidin-2-yl)azetidin-3-ol]	100 to 1000 nM
